One block for each compound: values may come before it.
What was measured:
AMPK [1] = experiment: Immunoblot of AMPK activation in HCT116 cells treated with Spautin-1; assay type: cell-based; conditions: indicated concentration of Spautin-1, immunoblot (FIG. 1I)
Description: FIG. 1A is a picture of an immunoblot showing the effect of USP10 knockdown on AMPK activation. HCT116 cells were infected with lentivirus encoding the indicated shRNAs. Cell lysates were immunoblotted as indicated. FIGS. 1B and 1C are a picture (FIG. 1B) and a graph (FIG. 1C) showing Oil-Red-O staining of HCT116 cells with or without shRNA knockdown of USP10. Control or USP10 knockdown HCT116 cells were incubated in medium supplemented with 200 μM sodium oleate overnight (20 hours) and fixed with formalin. The intracellular lipid droplet abundance was assessed by Oil-Red-O staining. The results represent the means (±SEM) of three independent experiments. **, p<0.01. FIG. 1D is a graph plotting lactate concentration in HCT116 cells. Lactate production was measured after incubation of control and USP10 knockdown HCT116 cells in medium for 48 hours. […] FIG. 1E is a graph plotting relative expression of aldoa, ldha, and pdkl mRNA in control or USP10 knockdown HCT116 cells, as determined by qPCR. Transcript levels were determined relative to actin mRNA levels, and normalized relative to control cells. […] The intracellular lipid droplet abundance was assessed by Oil-Red-O staining. […] The relative expression of aldoa, ldha, and pdkl mRNA in the indicated cells was determined by qPCR. Transcript levels were determined relative to actin mRNA levels, and normalized relative to control cells. […]

cancer cells = experiment: Survival of cancer cells with and without USP10 after treatment with everolimus; assay type: cell-based
Text: FIGS. 12A and 12B are pictures of immunoblots from co-immuno-precipitation assays showing that USP10 interacts with mTOR. […] FIG. 12D is a graph plotting survival of cancer cells with and without USP10, after treatment with the mTOR inhibitor, everolimus. […] FIG. 12E is a graph plotting survival of cancer cells with and without USP10 knockdown by shRNA, after treatment with everolimus.

Ub-AMC = experiment: In vitro deubiquitinase enzymatic assay with Ub-AMC; assay type: biochemical; conditions: purified USP10 incubated with or without active AMPK (FIG. 9A)
Description: In vitro deubiquitinase enzymatic assay—In vitro enzymatic assays using ubiquitin-7-amido-4-methylcoumarin (Ub-AMC; U-550; Boston Biochem) were performed in 50-100 μl reaction buffer (20 mM HEPES-KOH [pH 7.8], 20 mM NaCl, 0.1 mg/ml ovalbumin [A7641; Sigma], 0.5 mM EDTA, and 10 mM DTT) at 25° C. Fluorescence was monitored in an INFINITE® M1000 PRO Fluorometer (TECAN).

AMPK [2] = experiment: AMPK in vitro kinase assay (32P incorporation into peptides); assay type: biochemical
Description: AMPK in vitro kinase assay—Purified AMPK (Upstate Biotechnology) was incubated with various substrates (0.5 μg) in kinase reaction buffer (15 mM HEPES, pH 7.0, 1 mm dithiothreitol, 18.75 mM MgCl2, 1.25 mM EGTA, and 125 μM ATP and 12.5 μCi of radiolabeled ATP, with or without 150 μM AMP, at 30° C. for 30 minutes. The product was separated by SDS-PAGE and subjected to autoradiography. Phosphorylation was detected by incorporation of radiolabeled [γ-32P] ATP. To study the stoichiometry of phosphorylation of the USP10 S76 [TLPRTPSYSISST (SEQ ID NO:19), synthesized by Peptide 2.0] and SAMS (Abcam) peptides by AMPK, the peptides (20 μM) were individually incubated in 100 μl of reaction buffer at 30° C. Aliquots (10 μl) were removed at various times to measure ^32P incorporation.

ubiquitinated AMPKα = experiment: In vitro deubiquitination of AMPKα; assay type: biochemical; conditions: bacterially-expressed USP10, ubiquitinated AMPKα substrate (FIGS. 3H and 4C)
Text: In vitro deubiquitination of AMPKα—To prepare ubiquitinated AMPKα as the substrate for the in vitro deubiquitination assay, HCT116 cells were transfected with both HA-Ub and FLAG-AMPKα. […] Following extensive washing with the FLAG-lysis buffer, proteins were eluted with FLAG-peptides (Sigma). The recombinant His-USP10 and USP10CA polypeptides were expressed in BL21 cells and purified with the His-tag purification column (Novagen). For the in vitro deubiquitination assay, ubiquitinated AMPK protein was incubated with recombinant USP10 in a deubiquitination buffer (50 mM Tris-HCl pH 8.0, 50 mM NaCl, 1 mM EDTA, 10 mM DTT, 5% glycerol) overnight at 16° C.

Compound: Fc1ccc(CNc2ncnc3ccc(F)cc23)cc1 [Spautin-1]
AMPK activation (AMPK [1]): largely inhibited

Compound: CO[C@H]1C[C@@H]2CC[C@@H](C)[C@@](O)(O2)C(=O)C(=O)N2CCCC[C@H]2C(=O)O[C@H]([C@H](C)C[C@@H]2CC[C@@H](OCCO)[C@H](OC)C2)CC(=O)[C@H](C)/C=C(\C)[C@@H](O)[C@@H](OC)C(=O)[C@H](C)C[C@H](C)/C=C/C=C/C=C/1C [everolimus]
survival of cancer cells (cancer cells; USP10 shRNA knockdown vs control shRNA (FIG. 12E)): greater effect on survival of USP10 knockdown cells than on cells treated with a control shRNA
survival of cancer cells (cancer cells; cells with vs without USP10 (FIG. 12D)): decreased in the absence of USP10

Compound: S76A mutant: USP10 with S76 mutated to Ala
deubiquitinase activity toward Ub-AMC (Ub-AMC): remained low

maximal stoichiometry of phosphorylation by AMPK (AMPK [2]; after 30 minutes of incubation, calculated from FIG. 8D data (FIG. 8E)): 0.46±0.04 mol/mol
initial rate of phosphorylation by AMPK (AMPK [2]; peptide 20 μM, 30° C., mean ±SEM of three experiments (FIG. 8D)): 155±36 pmol/min/reaction mix
Compound: USP10 peptide: synthesized USP10 S76 peptide TLPRTPSYSISST (SEQ ID NO:19) (listed as Homo sapiens)

Compound: WT USP10: recombinant wild type USP10 deubiquitinase (SEQ ID NO:2), bacterially expressed
deubiquitination of AMPKα in vitro (ubiquitinated AMPKα): removed ubiquitin chain from AMPKα

Compound: phosphorylated USP10: USP10 phosphorylated using active AMPK in vitro
deubiquitinase activity toward Ub-AMC (Ub-AMC): much higher activity toward Ub-AMC

Reference: patent US20190030139A1, “USP10 MODULATION OF AMPK AND MTOR” (MAYO FOUNDATION FOR MEDICAL EDUCATION AND RESEARCH, priority 2016, published 2019)
